Test results taken from ChEMBL document CHEMBL3885861, “Open TG-GATES”.

Species: Rattus norvegicus
Test: Open TG-GATES - Regimen: Single
Format: toxicity, organism-based, Sprague-Dawley
Parameters: regimen Single, gender Male, age 6 weeks
Conditions: in vivo, po, route gavage; for gamma-GTP / ALP / ALT / AST / BUN / CRE / Ca / Cl / DBIL / GLC / IP / K / LDH / Na / PL / RALB / TBIL / TC / TG / TP: tissue Plasma; for Bas / Eos / Fbg / Hb / Ht / Lym / MCHC / MCV / Mono / Neu / PT / Plat / RBC / Ret / WBC / APTT: tissue Blood
[1] = 300 mg/kg, 3 h, dose level Middle
[2] = 300 mg/kg, 6 h, dose level Middle
[3] = 300 mg/kg, 9 h, dose level Middle
[4] = 300 mg/kg, 24 h, dose level Middle
[5] = 1000 mg/kg, 3 h, dose level High
[6] = 1000 mg/kg, 6 h, dose level High
[7] = 1000 mg/kg, 9 h, dose level High
[8] = 1000 mg/kg, 24 h, dose level High

In the case of `O=C(O)c1cccnc1` [NIACIN], the gamma-GTP (100 mg/kg, 24 h, dose level Low) is reported as 1 IU/L, the Bas [1] is reported as 0% and the Eos [1] is reported as 1%. The Fbg [1] was 304.8 mg/dL, the Hb [1] was 13.1 g/dL and the Ht [1] was 39.9%. For the same molecule, the Lym [1] was 79.2%, the MCHC [1] was 32.9% and the MCV [1] was 64.5 fL. For the same molecule, the Mono [1] was 2.4%, the Neu [1] was 16.2% and the PT [1] was 16 s. For the same molecule, the Plat [1] was 118.4 x10_4/uL, the RBC [1] was 620.8 x10_4/ul and the Ret [1] was 8.5%. It also gave a WBC [1] of 82.2 x10_2/uL, an ALP [1] of 1554 IU/L and an ALT [1] of 38.4 IU/L. The AST [1] was 73 IU/L, the BUN [1] was 13.2 mg/dL and the CRE [1] was 0.2 mg/dL. It also gave a Ca [1] of 10.8 mg/dL, a Cl [1] of 105.6 meq/L and a DBIL [1] of 0.002 mg/dL. The GLC [1] was 179.4 mg/dL, the IP [1] was 9.3 mg/dL and the K [1] was 3.7 meq/L. The LDH [1] was 184 IU/L, the Na [1] was 140.2 meq/L and the PL [1] was 120.6 mg/dL. The RALB [1] was 3 g/dL, the TBIL [1] was 0 mg/dL and the TC [1] was 73.6 mg/dL. For the same molecule, the TG [1] was 28.8 mg/dL, the TP [1] was 5.6 g/dL and the gamma-GTP [1] was 1.2 IU/L. For the same molecule, the Bas [2] was 0%, the Eos [2] was 0.8% and the Fbg [2] was 329.8 mg/dL. The Hb [2] was 13.6 g/dL, the Ht [2] was 41.4% and the Lym [2] was 73%. The MCHC [2] was 32.9%, the MCV [2] was 62.9 fL and the Mono [2] was 2.4%. It also gave a Neu [2] of 23%, a PT [2] of 16.6 s and a Plat [2] of 119.6 x10_4/uL. For the same molecule, the RBC [2] was 657.8 x10_4/ul, the Ret [2] was 8.4% and the WBC [2] was 82.7 x10_2/uL. For the same molecule, the ALP [2] was 1294 IU/L, the ALT [2] was 40.2 IU/L and the AST [2] was 71.4 IU/L. It also gave a BUN [2] of 12.6 mg/dL, a CRE [2] of 0.1 mg/dL and a Ca [2] of 10.6 mg/dL. The Cl [2] was 106.4 meq/L, the DBIL [2] was 0.002 mg/dL and the GLC [2] was 182.4 mg/dL. The IP [2] was 9.6 mg/dL, the K [2] was 3.7 meq/L and the LDH [2] was 211.8 IU/L. It also gave a Na [2] of 140.6 meq/L, a PL [2] of 125.8 mg/dL and an RALB [2] of 3 g/dL. The TBIL [2] was 0.002 mg/dL, the TC [2] was 76.2 mg/dL and the TG [2] was 31 mg/dL. It also gave a TP [2] of 5.6 g/dL, a gamma-GTP [2] of 1.4 IU/L and an APTT [3] of 22.4 s. For the same molecule, the Bas [3] was 0%, the Eos [3] was 0.8% and the Fbg [3] was 304.4 mg/dL. The Hb [3] was 13.1 g/dL, the Ht [3] was 39.5% and the Lym [3] was 71.8%. For the same molecule, the MCHC [3] was 33.3%, the MCV [3] was 62.6 fL and the Mono [3] was 2.2%. For the same molecule, the Plat [3] was 114.7 x10_4/uL, the RBC [3] was 631.4 x10_4/ul and the Ret [3] was 8.5%. It also gave a WBC [3] of 72.8 x10_2/uL, an ALP [3] of 1319 IU/L and an ALT [3] of 38.4 IU/L. For the same molecule, the AST [3] was 72.2 IU/L, the CRE [3] was 0.2 mg/dL and the Ca [3] was 10.9 mg/dL. For the same molecule, the Cl [3] was 105.2 meq/L, the DBIL [3] was 0.006 mg/dL and the GLC [3] was 176 mg/dL. The IP [3] was 9.1 mg/dL, the K [3] was 4.2 meq/L and the LDH [3] was 169.8 IU/L. For the same molecule, the Na [3] was 140.8 meq/L, the PL [3] was 124.8 mg/dL and the RALB [3] was 2.8 g/dL. It also gave a TBIL [3] of 0.004 mg/dL, a TC [3] of 70.2 mg/dL and a TG [3] of 50.4 mg/dL. The TP [3] was 5.3 g/dL, the gamma-GTP [3] was 1.6 IU/L and the Bas [4] was 0%. The Eos [4] was 1%, the Fbg [4] was 343 mg/dL and the Hb [4] was 13.7 g/dL. The Ht [4] was 40%, the Lym [4] was 78.4% and the MCHC [4] was 34.2%. The MCV [4] was 62.5 fL, the Mono [4] was 2.6% and the Neu [4] was 16.6%. It also gave a PT [4] of 16 s, a Plat [4] of 120.8 x10_4/uL and an RBC [4] of 640 x10_4/ul. The Ret [4] was 6.4%, the WBC [4] was 98.1 x10_2/uL and the ALP [4] was 1858 IU/L. For the same molecule, the AST [4] was 70.4 IU/L, the BUN [4] was 14 mg/dL and the CRE [4] was 0.1 mg/dL. For the same molecule, the Ca [4] was 10.7 mg/dL, the Cl [4] was 104.4 meq/L and the DBIL [4] was 0 mg/dL. The GLC [4] was 192 mg/dL, the IP [4] was 7.9 mg/dL and the K [4] was 4.1 meq/L. The LDH [4] was 172.2 IU/L, the Na [4] was 139.8 meq/L and the PL [4] was 156.8 mg/dL. The RALB [4] was 3 g/dL, the TBIL [4] was 0 mg/dL and the TC [4] was 79.4 mg/dL. For the same molecule, the TG [4] was 134.4 mg/dL, the TP [4] was 5.6 g/dL and the gamma-GTP [4] was 1.4 IU/L. For the same molecule, the Bas [5] was 0%, the Eos [5] was 1.2% and the Fbg [5] was 303 mg/dL. The Hb [5] was 13.2 g/dL, the Lym [5] was 75.2% and the MCHC [5] was 32.8%. It also gave an MCV [5] of 62.8 fL, a Mono [5] of 2.4% and a Neu [5] of 20%. The PT [5] was 16.2 s, the Plat [5] was 114.5 x10_4/uL and the RBC [5] was 642.4 x10_4/ul. It also gave a Ret [5] of 8.7%, a WBC [5] of 70.3 x10_2/uL and an ALP [5] of 1421 IU/L. It also gave an ALT [5] of 43.6 IU/L, an AST [5] of 79.4 IU/L and a BUN [5] of 12.2 mg/dL. It also gave a CRE [5] of 0.2 mg/dL, a Ca [5] of 10.6 mg/dL and a Cl [5] of 106.2 meq/L. It also gave a DBIL [5] of 0 mg/dL, a GLC [5] of 187 mg/dL and an IP [5] of 9.4 mg/dL. It also gave a K [5] of 3.6 meq/L, an LDH [5] of 226.4 IU/L and a Na [5] of 140.8 meq/L. The PL [5] was 118.2 mg/dL, the RALB [5] was 3.1 g/dL and the TBIL [5] was 0 mg/dL. It also gave a TC [5] of 72.4 mg/dL, a TG [5] of 24.4 mg/dL and a TP [5] of 5.6 g/dL. The gamma-GTP [5] was 1.2 IU/L, the Bas [6] was 0% and the Eos [6] was 1%. The Fbg [6] was 311 mg/dL, the Hb [6] was 13.6 g/dL and the Ht [6] was 41.3%. It also gave a Lym [6] of 75.8%, an MCHC [6] of 32.8% and an MCV [6] of 64.6 fL. The Mono [6] was 2%, the Neu [6] was 20.4% and the PT [6] was 16.4 s. For the same molecule, the Plat [6] was 121.3 x10_4/uL, the RBC [6] was 641.2 x10_4/ul and the Ret [6] was 8.2%. It also gave a WBC [6] of 74.6 x10_2/uL, an ALP [6] of 1566.4 IU/L and an ALT [6] of 35 IU/L. The AST [6] was 74.6 IU/L, the BUN [6] was 12.4 mg/dL and the CRE [6] was 0.2 mg/dL. For the same molecule, the Ca [6] was 10.6 mg/dL, the Cl [6] was 107.6 meq/L and the DBIL [6] was 0 mg/dL. For the same molecule, the GLC [6] was 181 mg/dL, the IP [6] was 9.2 mg/dL and the K [6] was 3.8 meq/L. The LDH [6] was 210.8 IU/L, the Na [6] was 139.6 meq/L and the PL [6] was 115.2 mg/dL. It also gave an RALB [6] of 3 g/dL, a TBIL [6] of 0 mg/dL and a TC [6] of 69.6 mg/dL. For the same molecule, the TG [6] was 27.8 mg/dL, the TP [6] was 5.6 g/dL and the gamma-GTP [6] was 1.4 IU/L. For the same molecule, the APTT [7] was 22.8 s, the Bas [7] was 0% and the Eos [7] was 1%. The Fbg [7] was 324 mg/dL, the Hb [7] was 13.3 g/dL and the Lym [7] was 67%. It also gave an MCHC [7] of 33%, an MCV [7] of 62 fL and a Mono [7] of 1.8%. The Neu [7] was 29.8%, the PT [7] was 15.6 s and the Plat [7] was 116.6 x10_4/uL. It also gave an RBC [7] of 651 x10_4/ul, a Ret [7] of 8% and a WBC [7] of 71.1 x10_2/uL. For the same molecule, the ALP [7] was 1673.4 IU/L, the ALT [7] was 41.2 IU/L and the AST [7] was 75.2 IU/L. It also gave a BUN [7] of 13 mg/dL, a CRE [7] of 0.2 mg/dL and a Ca [7] of 10.8 mg/dL. For the same molecule, the Cl [7] was 106.8 meq/L, the DBIL [7] was 0.004 mg/dL and the GLC [7] was 171.2 mg/dL. It also gave an IP [7] of 9.4 mg/dL, a K [7] of 3.9 meq/L and an LDH [7] of 198.2 IU/L. The Na [7] was 139.8 meq/L, the PL [7] was 101.2 mg/dL and the RALB [7] was 3.1 g/dL. It also gave a TBIL [7] of 0.002 mg/dL, a TC [7] of 60.6 mg/dL and a TG [7] of 17.2 mg/dL. For the same molecule, the TP [7] was 5.5 g/dL, the gamma-GTP [7] was 1.2 IU/L and the Bas [8] was 0%. For the same molecule, the Eos [8] was 1%, the Fbg [8] was 319 mg/dL and the Hb [8] was 13.3 g/dL. The Ht [8] was 39.7%, the Lym [8] was 71.4% and the MCHC [8] was 33.4%. For the same molecule, the MCV [8] was 63.3 fL, the Mono [8] was 3% and the Neu [8] was 23.2%. It also gave a PT [8] of 15.9 s, a Plat [8] of 117.3 x10_4/uL and an RBC [8] of 627 x10_4/ul. It also gave a Ret [8] of 7.2%, a WBC [8] of 92.1 x10_2/uL and an ALP [8] of 1735.4 IU/L. It also gave an ALT [8] of 53 IU/L, an AST [8] of 75.4 IU/L and a BUN [8] of 16.6 mg/dL. The CRE [8] was 0.2 mg/dL, the Ca [8] was 10.5 mg/dL and the Cl [8] was 104.4 meq/L. It also gave a DBIL [8] of 0 mg/dL, a GLC [8] of 188.6 mg/dL and an IP [8] of 8.1 mg/dL. The K [8] was 4.1 meq/L, the LDH [8] was 174.8 IU/L and the Na [8] was 139.6 meq/L. The PL [8] was 144.2 mg/dL, the RALB [8] was 3 g/dL and the TBIL [8] was 0 mg/dL. For the same molecule, the TC [8] was 70.6 mg/dL, the TG [8] was 119.2 mg/dL and the TP [8] was 5.4 g/dL. For the same molecule, the gamma-GTP [8] was 1 IU/L.
